Measured values published in ChEMBL document CHEMBL5620379, “Discovery, SAR and mechanistic studies of quinazolinone-based acetamide derivatives in experimental visceral leishmaniasis” (Eur J Med Chem, 2023).

Tests used:
J774 [1] = assay: Cytotoxicity against mouse J774 cells at 25 uM incubated for 72 hrs by MTT assay relative to control; format: toxicity, cell-based; details: j774, 72 h
Leishmania donovani [2] = assay: Antileishmanial activity against Leishmania donovani amastigotes infected in J774 macrophage assessed as inhibition of parasite growth at 25 uM incubated for 48 hrs by luciferase assay relative to control; format: functional; parameters: scale not given: the % may be the effect or the level left
Leishmania donovani [3] = assay: Antileishmanial activity against Leishmania donovani amastigotes infected in J774 macrophage assessed as inhibition of parasite growth incubated for 48 hrs by luciferase assay; format: functional, organism-based; details: J774, 48 h
Leishmania donovani [4] = assay: Antileishmanial activity against Leishmania donovani infected in golden hamster assessed as inhibition of parasite growth in spleen at 80 mg/kg, po administered for 7 days and measured after 28 days by giemsa staining based analysis relative to control; format: functional; parameters: scale not given: the % may be the effect or the level left; details: time 28 day
[5] = Toxicity in BALB/c mouse assessed as effect on skin texture at 10 to 40 mg/kg, po measured after 1 week; format: organism-based; details: in vivo, 168 h, dose 10-40 mg/kg, time 1 weeks
J774 [6] = assay: Cytotoxicity against mouse J774 macrophage incubated for 72 hrs by MTT assay; format: functional
[7] = Stability of the compound in stimulated intestinal fluid at 10 ug/ml at pH 6.8 measured after 120 min by HPLC analysis; format: ADME; details: simulated intestinal fluid, at 10 µg/mL, read-out: Stability
J774 [8] = assay: Cytotoxicity against mouse J774 cells at 50 uM incubated for 72 hrs by MTT assay relative to control; format: toxicity, cell-based; details: j774, 72 h
[9] = Toxicity in golden hamster infected with Leishmania donovani assessed as reduction in serum ALT level at 40 mg/kg ,po and measured after 28 days post infection (reference value: 81.58 IU/L); format: organism-based, Mesocricetus auratus; details: in vivo, 672 h, time 28 day
Leishmania donovani [10] = assay: Antileishmanial activity against amastigote form of Leishmania donovani infected in BALB/c mouse assessed as inhibition of parasite growth in spleen at 20 mg/kg, po measured after 1 week post treatment by geimsa staining based analysis relative to control; format: functional; parameters: scale not given: the % may be the effect or the level left; details: time 1 weeks
[11] = Renal toxicity in golden hamster assessed as effect on urea level at 40 mg/kg, po measured after 28 days post infection; format: organism-based, Mesocricetus auratus; details: in vivo, 672 h, time 28 day
Leishmania donovani [12] = assay: Antileishmanial activity against amastigote form of Leishmania donovani infected in BALB/c mouse assessed as inhibition of parasite growth in liver at 40 mg/kg, po measured after 1 week post treatment by geimsa staining based analysis relative to control; format: functional; parameters: scale not given: the % may be the effect or the level left; details: time 1 weeks
Splenocyte [13] = assay: Immunostimulatory activity in mouse splenocyte assessed as decrease in IL-10 secretion at 10 to 40 mg/kg measured after 1 week by RT-PCR analysis relative to control; format: functional; parameters: scale not given: the % may be the effect or the level left; details: dose 10-40 mg/kg, time 1 weeks
Leishmania donovani [14] = assay: Antileishmanial activity against Leishmania donovani infected in golden hamster assessed as inhibition of parasite growth in liver at 80 mg/kg, po administered for 7 days and measured after 28 days by giemsa staining based analysis relative to control; format: functional; parameters: scale not given: the % may be the effect or the level left; details: time 28 day
Leishmania donovani [15] = assay: Antileishmanial activity against Leishmania donovani promastigotes measured after 48 hrs by MTT assay; format: functional, organism-based
Leishmania donovani [16] = assay: Antileishmanial activity against amastigote form of Leishmania donovani infected in BALB/c mouse assessed as inhibition of parasite growth in spleen at 40 mg/kg, po measured after 1 week post treatment by geimsa staining based analysis relative to control; format: functional; parameters: scale not given: the % may be the effect or the level left; details: time 1 weeks
Leishmania donovani [17] = assay: Antileishmanial activity against amastigote form of Leishmania donovani infected in BALB/c mouse assessed as inhibition of parasite growth in liver at 20 mg/kg, po measured after 1 week post treatment by geimsa staining based analysis relative to control; format: functional; parameters: scale not given: the % may be the effect or the level left; details: time 1 weeks
[18] = Stability of the compound in Tris-buffer at 10 ug/ml at pH 7.4 measured upto 120 min by HPLC analysis; format: physicochemical; details: at 10 µg/mL, read-out: Stability
[19] = Stability of the compound in stimulated gastric fluid at 10 ug/ml at pH 1.2 measured upto 120 min by HPLC analysis; format: ADME; details: simulated gastric fluid, at 10 µg/mL, read-out: Stability
Leishmania donovani [20] = assay: Antileishmanial activity against amastigote form of Leishmania donovani infected in BALB/c mouse assessed as inhibition of parasite growth in spleen at 10 mg/kg, po measured after 1 week post treatment by geimsa staining based analysis relative to control; format: functional; parameters: scale not given: the % may be the effect or the level left; details: time 1 weeks
[21] = Toxicity in BALB/c mouse assessed as effect on body weight at 10 to 40 mg/kg, po measured after 1 week; format: organism-based; details: in vivo, 168 h, dose 10-40 mg/kg, time 1 weeks
Leishmania donovani [22] = assay: Antileishmanial activity against Leishmania donovani infected in golden hamster assessed as inhibition of parasite growth in spleen at 40 mg/kg, po administered for 7 days and measured after 28 days by giemsa staining based analysis relative to control; format: functional; parameters: scale not given: the % may be the effect or the level left; details: time 28 day
J774 [23] = assay: Cytotoxicity against mouse J774 cells at 12.5 uM incubated for 72 hrs by MTT assay relative to control; format: toxicity, cell-based; details: j774, 72 h
[24] = Renal toxicity in golden hamster assessed as effect on creatinine level at 40 mg/kg, po measured after 28 days post infection; format: organism-based, Mesocricetus auratus; details: in vivo, 672 h, time 28 day
Leishmania donovani [25] = assay: Antileishmanial activity against amastigote form of Leishmania donovani infected in BALB/c mouse assessed as inhibition of parasite growth in liver at 10 mg/kg, po measured after 1 week post treatment by geimsa staining based analysis relative to control; format: functional; parameters: scale not given: the % may be the effect or the level left; details: time 1 weeks
Leishmania donovani [26] = assay: Antileishmanial activity against Leishmania donovani infected in golden hamster assessed as inhibition of parasite growth in liver at 40 mg/kg, po administered for 7 days and measured after 28 days by giemsa staining based analysis relative to control; format: functional; parameters: scale not given: the % may be the effect or the level left; details: time 28 day
[27] = Toxicity in golden hamster infected with Leishmania donovani assessed as reduction in serum AST level at 40 mg/kg ,po and measured after 28 days post infection (reference value: 82.72 IU/L); format: organism-based, Mesocricetus auratus; details: in vivo, 672 h, time 28 day
Leishmania donovani [28] = assay: Antileishmanial activity against Leishmania donovani promastigotes at 25 uM measured after 48 hrs by MTT assay relative to control; format: functional
[29] = Selectivity index, ratio of CC50 for mouse J774 macrophage to IC50 for Leishmania donovani amastigotes infected in J774 macrophage; format: toxicity; details: J774 macrophages, read-out: Ratio CC50/IC50
Splenocyte [30] = assay: Immunostimulatory activity in mouse splenocyte assessed as fold increase in IL-12 synthesis at 10 to 40 mg/kg measured after 1 week by RT-PCR analysis; format: functional; details: dose 10-40 mg/kg; time 1 weeks
[31] = Renal toxicity in golden hamster assessed as effect on urea level at 30 mg/kg, po measured after 28 days post infection; format: organism-based, Mesocricetus auratus; details: in vivo, 672 h, time 28 day
[32] = Renal toxicity in golden hamster assessed as effect on creatinine level at 30 mg/kg, po measured after 28 days post infection; format: organism-based, Mesocricetus auratus; details: in vivo, 672 h, time 28 day
[33] = Toxicity in golden hamster infected with Leishmania donovani assessed as reduction in serum AST level at 30 mg/kg ,po and measured after 28 days post infection (reference value: 82.72 IU/L); format: organism-based, Mesocricetus auratus; details: in vivo, 672 h, time 28 day
[34] = Toxicity in golden hamster infected with Leishmania donovani assessed as reduction in serum ALT level at 30 mg/kg ,po and measured after 28 days post infection (reference value: 81.58 IU/L); format: organism-based, Mesocricetus auratus; details: in vivo, 672 h, time 28 day
Leishmania donovani [35] = assay: Antileishmanial activity against Leishmania donovani infected in golden hamster assessed as elimination of organ parasite burden at 30 mg/kg, po administered for 7 days and measured after 28 days by giemsa staining based analysis relative to control; format: functional; details: time 28 day

Row | Structure (SMILES) | Activity (J774 [1]) [%] | Activity (Leishmania donovani [2]) [%] | IC50 (Leishmania donovani [3]) [µM] | CC50 (J774 [6]) [µM] | Activity (J774 [8]) [%] | Activity (Leishmania donovani [10]) [%] | IC50 (Leishmania donovani [15]) [µM] | Activity (Leishmania donovani [17]) [%] | Activity (J774 [23]) [%] | Activity (Leishmania donovani [28]) [%] | selectivity ratio [29] | other results
1 | CCn1c(-c2ccc(OCC(=O)Nc3ccccc3)cc2)nc2ccccc2c1=O | 77.94 | 80.66 | 6.02 | 72.9 | 42.29 | 53.3 | 5.76 | 54.4 | 84.82 | 84.61 | 12.1 | Activity (Leishmania donovani [4]): 75.7%; Activity [5]: Non-Toxic; remaining at 2 h, 10 ug/ml [7]: 89.6%; Activity [9]: 100.8 IU/L; Activity [11]: Non-Toxic; Activity (Leishmania donovani [12]): 77.3%; Activity (Splenocyte [13]): 23.68%; Activity (Leishmania donovani [14]): 77.1%; Activity (Leishmania donovani [16]): 74.1%; remaining at 2 h, 10 ug/ml [18]: 91.6%; remaining at 2 h, 10 ug/ml [19]: 88.8%; Activity (Leishmania donovani [20]): 28.1%; Activity [21]: Non-Toxic; Activity (Leishmania donovani [22]): 53.9%; Activity [24]: Non-Toxic; Activity (Leishmania donovani [25]): 29.8%; Activity (Leishmania donovani [26]): 46.1%; Activity [27]: 119.82 IU/L; fold change (FC) (Splenocyte [30]): 2.03
2 | Cn1c(-c2ccc(OCC(=O)Nc3ccc4c(c3)CCC4)cc2)nc2ccccc2c1=O | 53.88 | 78.87 | 6.23 | 31.7 | 36.13 |  | 8.26 |  | 87.89 | 79.73 | 5.09 | 
3 | Cn1c(-c2ccc(OCC(=O)Nc3ccc4c(c3)OCO4)cc2)nc2ccccc2c1=O | 78.08 |  | 21.5 | 48.5 | 45.89 |  | 17.5 |  | 85.01 |  | 2.25 | 
4 | CCn1c(-c2ccc(OCC(=O)Nc3ccccn3)cc2)nc2ccccc2c1=O | 79.09 |  | 27.2 | 39.5 | 38.97 |  | 23.9 |  | 84.82 |  | 1.45 | 
5 | CCc1ccc(NC(=O)COc2ccc(-c3nc4ccccc4c(=O)n3C)cc2)cc1 | 79.14 |  | 20.1 | 38.1 | 33.38 |  | 15.1 |  | 81.78 |  | 1.89 | 
6 | CCCCCCCCCCCCCCCCOP(=O)([O-])OCC[N+](C)(C)C [MILTEFOSINE] | 76.74 |  | 11 | 68 | 53.21 | 98.51 | 6.91 | 97.23 | 85.44 |  | 6.21 | Activity [31]: Non-Toxic; Activity [32]: Non-Toxic; Activity [33]: 25 IU/L; Activity [34]: 20 IU/L; Activity (Leishmania donovani [35]): 100%
